ChEMBL document CHEMBL1201862, “PubChem BioAssay data set” (2004)
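Briefly, cells in 96-well plates were exposed to five compound concentrations for 48 h, and endpoints were estimated by linear interpolation. GI50 = concentration required for 50% inhibition of growth.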 Activity calls are given as the source filed them. No stated cut-off is given here; in the data, active = GI50 up to about 1.1 µM and inactive = higher.

What was measured:
Test in all cases: growth of human tumour cells (NCI), 48 h
OVCAR-5 = test system: OVCAR-5
Hs-578T = test system: Hs-578T
ACHN = test system: ACHN
NCI-H23 = test system: NCI-H23
BT-549 = test system: BT-549
M14 = test system: M14
NCI-H522 = test system: NCI-H522
PC-3 = test system: PC-3
MDA-MB-231 = test system: MDA-MB-231
OVCAR-8 = test system: OVCAR-8
786-0 = test system: 786-0
HT-29 = test system: HT-29
NCI-H226 = test system: NCI-H226
LOX IMVI = test system: LOX IMVI
HCC 2998 = test system: HCC 2998
UO-31 = test system: UO-31
A498 = test system: A498
MDA-N = test system: MDA-N
NCI-H460 = test system: NCI-H460
IGROV-1 = test system: IGROV-1
MDA-MB-435 = test system: MDA-MB-435
CAKI-1 = test system: CAKI-1
A549 = test system: A549
SF-268 = test system: SF-268
KM12 = test system: KM12
SK-MEL-28 = test system: SK-MEL-28
U-251 = test system: U-251
K562 = test system: K562
SF-295 = test system: SF-295
TK-10 = test system: TK-10
NCI/ADR-RES = test system: NCI/ADR-RES
COLO 205 = test system: COLO 205
SN12C = test system: SN12C
UACC-257 = test system: UACC-257
RXF 393 = test system: RXF 393
OVCAR-4 = test system: OVCAR-4
SK-OV-3 = test system: SK-OV-3
HOP-92 = test system: HOP-92
MCF7 = test system: MCF7
SK-MEL-5 = test system: SK-MEL-5
RPMI-8226 = test system: RPMI-8226
HOP-62 = test system: HOP-62
HCT-116 = test system: HCT-116
MOLT-4 = test system: MOLT-4
HCT-15 = test system: HCT-15
T47D = test system: T47D
Malme-3M = test system: Malme-3M
DU-145 = test system: DU-145
EKVX = test system: EKVX
SW-620 = test system: SW-620
CCRF-CEM = test system: CCRF-CEM
UACC-62 = test system: UACC-62
OVCAR-3 = test system: OVCAR-3
SNB-19 = test system: SNB-19
SK-MEL-2 = test system: SK-MEL-2
HL-60 = test system: HL-60
SF-539 = test system: SF-539

Compound: OCCN(CCO)c1ncnc2[nH]cnc12
- GI50 (OVCAR-5): 60.8 µM (inactive)
- GI50 (Hs-578T): 53.6 µM (inactive)
- GI50 (ACHN): > 100 µM (inactive)
- GI50 (NCI-H23): > 100 µM (inactive)
- GI50 (BT-549): > 100 µM (inactive)
- GI50 (M14): > 100 µM (inactive)
- GI50 (NCI-H522): > 100 µM (inactive)
- GI50 (PC-3): > 100 µM (inactive)
- GI50 (MDA-MB-231): 80.9 µM (inactive)
- GI50 (OVCAR-8): > 100 µM (inactive)
- GI50 (786-0): > 100 µM (inactive)
- GI50 (HT-29): > 100 µM (inactive)
- GI50 (NCI-H226): > 100 µM (inactive)
- GI50 (LOX IMVI): > 100 µM (inactive)
- GI50 (HCC 2998): > 100 µM (inactive)
- GI50 (UO-31): 63.4 µM (inactive)
- GI50 (A498): > 100 µM (inactive)
- GI50 (MDA-N): > 100 µM (inactive)
- GI50 (NCI-H460): > 100 µM (inactive)
- GI50 (IGROV-1): > 100 µM (inactive)
- GI50 (MDA-MB-435): > 100 µM (inactive)
- GI50 (CAKI-1): > 100 µM (inactive)
- GI50 (A549): > 100 µM (inactive)
- GI50 (SF-268): > 100 µM (inactive)
- GI50 (KM12): > 100 µM (inactive)
- GI50 (SK-MEL-28): > 100 µM (inactive)
- GI50 (U-251): > 100 µM (inactive)
- GI50 (K562): > 100 µM (inactive)
- GI50 (SF-295): > 100 µM (inactive)
- GI50 (TK-10): 67.1 µM (inactive)
- GI50 (NCI/ADR-RES): > 100 µM (inactive)
- GI50 (COLO 205): > 100 µM (inactive)
- GI50 (SN12C): > 100 µM (inactive)
- GI50 (UACC-257): > 100 µM (inactive)
- GI50 (RXF 393): > 100 µM (inactive)
- GI50 (OVCAR-4): > 100 µM (inactive)
- GI50 (SK-OV-3): > 100 µM (inactive)
- GI50 (HOP-92): > 100 µM (inactive)
- GI50 (MCF7): > 100 µM (inactive)
- GI50 (SK-MEL-5): > 100 µM (inactive)
- GI50 (RPMI-8226): > 100 µM (inactive)
- GI50 (HOP-62): > 100 µM (inactive)
- GI50 (HCT-116): > 100 µM (inactive)
- GI50 (MOLT-4): > 100 µM (inactive)
- GI50 (HCT-15): > 100 µM
- GI50 (T47D): > 100 µM (inactive)
- GI50 (Malme-3M): > 100 µM (inactive)
- GI50 (DU-145): > 100 µM (inactive)
- GI50 (EKVX): 68.5 µM (inactive)
- GI50 (SW-620): > 100 µM (inactive)
- GI50 (CCRF-CEM): > 100 µM (inactive)
- GI50 (UACC-62): > 100 µM (inactive)
- GI50 (OVCAR-3): > 100 µM (inactive)
- GI50 (SNB-19): > 100 µM (inactive)

Compound: NC(Cc1cccc([N+](=O)[O-])c1)C(=O)O (stereo unspecified)
- GI50 (OVCAR-5): > 100 µM (inactive)
- GI50 (Hs-578T): > 100 µM (inactive)
- GI50 (ACHN): > 100 µM (inactive)
- GI50 (NCI-H23): > 100 µM (inactive)
- GI50 (BT-549): > 100 µM (inactive)
- GI50 (M14): > 100 µM (inactive)
- GI50 (NCI-H522): > 100 µM (inactive)
- GI50 (SK-MEL-2): > 100 µM (inactive)
- GI50 (PC-3): > 100 µM (inactive)
- GI50 (MDA-MB-231): > 100 µM (inactive)
- GI50 (OVCAR-8): > 100 µM (inactive)
- GI50 (HL-60): > 100 µM (inactive)
- GI50 (786-0): > 100 µM (inactive)
- GI50 (HT-29): > 100 µM (inactive)
- GI50 (NCI-H226): > 100 µM (inactive)
- GI50 (LOX IMVI): > 100 µM (inactive)
- GI50 (HCC 2998): > 100 µM (inactive)
- GI50 (UO-31): > 100 µM (inactive)
- GI50 (A498): > 100 µM (inactive)
- GI50 (MDA-N): > 100 µM (inactive)
- GI50 (NCI-H460): > 100 µM (inactive)
- GI50 (IGROV-1): > 100 µM (inactive)
- GI50 (MDA-MB-435): > 100 µM (inactive)
- GI50 (CAKI-1): > 100 µM (inactive)
- GI50 (A549): > 100 µM (inactive)
- GI50 (SF-268): > 100 µM (inactive)
- GI50 (KM12): > 100 µM (inactive)
- GI50 (SK-MEL-28): > 100 µM (inactive)
- GI50 (U-251): > 100 µM (inactive)
- GI50 (SF-539): > 100 µM (inactive)
- GI50 (K562): > 100 µM (inactive)
- GI50 (SF-295): > 100 µM (inactive)
- GI50 (TK-10): > 100 µM (inactive)
- GI50 (NCI/ADR-RES): > 100 µM (inactive)
- GI50 (COLO 205): > 100 µM (inactive)
- GI50 (SN12C): > 100 µM (inactive)
- GI50 (UACC-257): > 100 µM (inactive)
- GI50 (RXF 393): > 100 µM (inactive)
- GI50 (OVCAR-4): > 100 µM (inactive)
- GI50 (SK-OV-3): > 100 µM (inactive)
- GI50 (HOP-92): 61.5 µM (inactive)
- GI50 (MCF7): > 100 µM (inactive)
- GI50 (SK-MEL-5): > 100 µM (inactive)
- GI50 (RPMI-8226): > 100 µM (inactive)
- GI50 (HOP-62): > 100 µM (inactive)
- GI50 (HCT-116): > 100 µM (inactive)
- GI50 (MOLT-4): > 100 µM (inactive)
- GI50 (HCT-15): > 100 µM
- GI50 (T47D): > 100 µM (inactive)
- GI50 (Malme-3M): > 100 µM (inactive)
- GI50 (DU-145): > 100 µM (inactive)
- GI50 (EKVX): > 100 µM (inactive)
- GI50 (SW-620): > 100 µM (inactive)
- GI50 (CCRF-CEM): > 100 µM (inactive)
- GI50 (UACC-62): > 100 µM (inactive)
- GI50 (OVCAR-3): > 100 µM (inactive)
- GI50 (SNB-19): > 100 µM (inactive)
